Reference: patent US20160038468A1 (priority 2013, published 2016)
Where two headings read alike, the source gives them in different places.

How the values were obtained:
Type in all cases: cell-based
Prevotella amnii = experiment: Agar dilution MIC (CLSI), Prevotella amnii vaginal isolates; conditions: for Number of strains with indicated MIC: 33 samples; for MIC: read-out: Minimal Inhibitory Concentration (MIC)
M. curtisii = experiment: Agar dilution MIC (CLSI), M. curtisii vaginal isolates; conditions: for Number of strains with indicated MIC: 14 samples; for MIC: read-out: Minimal Inhibitory Concentration (MIC)
Anaerococcus tetradius = experiment: Agar dilution MIC (CLSI), Anaerococcus tetradius vaginal isolates; conditions: for MIC: read-out: Minimal Inhibitory Concentration (MIC); for Number of strains with indicated MIC: 21 samples
[1] = test system: Megasphaera-like bacteria; experiment: Agar dilution MIC (CLSI), Megasphaera-like bacteria vaginal isolates; conditions: for MIC: read-out: Minimal Inhibitory Concentration (MIC); for Number of strains with indicated MIC: 25 samples
[2] = Anaerococcus tetradius, # tested 21

CCC[C@@H]1C[C@@H](C(=O)N[C@@H]([C@H]2O[C@H](SC)[C@H](O)[C@@H](O)[C@H]2O)[C@H](C)Cl)N(C)C1 [Clindamycin]
4 µg/mL: MIC (Anaerococcus tetradius; Anaerococcus tetradius, isolate 601242V 17)
1: Number of strains with indicated MIC (Prevotella amnii; MIC […]) | Number of strains with indicated MIC (M. curtisii; MIC 32 μg/ml) | Number of strains with indicated MIC (M. curtisii; MIC >[…]) | Number of strains with indicated MIC (Anaerococcus tetradius; MIC 0.03 μg/ml) | Number of strains with indicated MIC (Anaerococcus tetradius; MIC 8 μg/ml) | Number of strains with indicated MIC (Anaerococcus tetradius; MIC […]) | Number of strains with indicated MIC ([1]; MIC […])
0.03 µg/mL: MIC (Prevotella amnii; Prevotella amnii, isolate 601203 4) | MIC (Prevotella amnii; Prevotella amnii, isolate 601256 11) | MIC (Prevotella amnii; Prevotella amnii, isolate 601258 25) | MIC (Prevotella amnii; Prevotella amnii, isolate 601261 E) | MIC (Prevotella amnii; Prevotella amnii, isolate 601266 20) | MIC (Prevotella amnii; Prevotella amnii, isolate 601278 10) | MIC (Prevotella amnii; Prevotella amnii, isolate 601287 HH) | MIC (Prevotella amnii; Prevotella amnii, isolate 601291 41) | MIC (Prevotella amnii; Prevotella amnii, isolate 601293 29) | MIC (Prevotella amnii; Prevotella amnii, isolate 601305 A) | MIC (Prevotella amnii; Prevotella amnii, isolate 601311 K) | MIC (Prevotella amnii; Prevotella amnii, isolate 601314 19) | MIC (Prevotella amnii; Prevotella amnii, isolate 601318 G) | MIC (Prevotella amnii; Prevotella amnii, isolate 601336 33) | MIC (Prevotella amnii; Prevotella amnii, isolate 601341 H) | MIC (Prevotella amnii; Prevotella amnii, isolate 601350 A) | MIC (Prevotella amnii; Prevotella amnii, isolate 601365 6) | MIC (Prevotella amnii; Prevotella amnii, isolate 601368 24) | MIC (Prevotella amnii; Prevotella amnii, isolate 601369 13) | MIC (Prevotella amnii; Prevotella amnii, isolate 601375 L) | MIC (Prevotella amnii; Prevotella amnii, isolate 601377 9) | MIC (Prevotella amnii; Prevotella amnii, isolate 601379 24) | MIC (Prevotella amnii; Prevotella amnii, isolate 601388 G) | MIC (Prevotella amnii; Prevotella amnii, isolate 601399 10) | MIC (Prevotella amnii; Prevotella amnii, isolate 601405 A) | MIC (Prevotella amnii; Prevotella amnii, isolate 601411 L) | MIC (Prevotella amnii; Prevotella amnii, isolate 601413 10) | MIC (Prevotella amnii; Prevotella amnii, isolate 601418 27) | MIC (Prevotella amnii; Prevotella amnii, isolate 601426 A) | MIC (Prevotella amnii; Prevotella amnii, isolate 601430 14) | MIC (Prevotella amnii; Prevotella amnii, isolate 601434 13) | MIC (Prevotella amnii; Prevotella amnii, isolate 601458 13) | MIC50 (Prevotella amnii; Prevotella amnii, # tested 33) | MIC90 (Prevotella amnii; Prevotella amnii, # tested 33) | MIC (Anaerococcus tetradius; Anaerococcus tetradius, isolate 601221V 12) | MIC ([1]; 427510 h, isolate 427507 H) | MIC50 ([1]; # tested 25) | MIC90 ([1]; # tested 25) | MIC ([1]; isolate 426749 T) | MIC ([1]; isolate 426766 Q) | MIC ([1]; isolate 426788 8a) | MIC ([1]; isolate 426788 C) | MIC ([1]; isolate 427470 10) | MIC ([1]; isolate 427490 2u)
8 µg/mL: MIC (Anaerococcus tetradius; Anaerococcus tetradius, isolate 601401V T)
128 µg/mL: MIC (Prevotella amnii; Prevotella amnii, isolate 601340 37)
32: Number of strains with indicated MIC (Prevotella amnii; MIC 0.03 μg/ml)
32 (97) μg/ml: Susceptible (Prevotella amnii; number (%) of isolates, # tested 33)
0.03 to 128 µg/mL: MIC Range (Prevotella amnii; # tested 33)
1 (3) μg/ml: Resistant (Prevotella amnii; number (%) of isolates, # tested 33, resistance: rifaximin >32, metronidazole >32, clindamycin >8 μg/ml)
24: Number of strains with indicated MIC ([1]; MIC 0.03 μg/ml)
64 µg/mL: MIC (M. curtisii; individual isolates recovered from the vagina 2009-2012, one line per isolate (id in c0/c1 of the row))
> 128 µg/mL: MIC (M. curtisii) | MIC (Anaerococcus tetradius; Anaerococcus tetradius) | MIC90 (Anaerococcus tetradius; [2])
0.03 to 0.125 µg/mL: MIC Range ([1]; # tested 25)
1 µg/mL: MIC (Anaerococcus tetradius; Anaerococcus tetradius, isolate 601175V I) | MIC (Anaerococcus tetradius; Anaerococcus tetradius, isolate 601450V 22)
0.25 µg/mL: MIC (Anaerococcus tetradius; Anaerococcus tetradius, isolate 601222V 15)
>128 µg/mL: Minimal Inhibitory Concentration (MIC) (Anaerococcus tetradius; isolate 601379V 25) | Minimal Inhibitory Concentration (MIC) (Anaerococcus tetradius; isolate 602375V 22)
3: Number of strains with indicated MIC (M. curtisii; MIC 0.06 μg/ml) | Number of strains with indicated MIC (Anaerococcus tetradius; MIC >[…])
2 µg/mL: MIC (Anaerococcus tetradius; Anaerococcus tetradius, isolate 601098V T) | MIC (Anaerococcus tetradius; Anaerococcus tetradius, isolate 601103V 21) | MIC (Anaerococcus tetradius; Anaerococcus tetradius, isolate 601202V 11) | MIC (Anaerococcus tetradius; Anaerococcus tetradius, isolate 601212V 14) | MIC (Anaerococcus tetradius; Anaerococcus tetradius, isolate 601256V 9) | MIC (Anaerococcus tetradius; Anaerococcus tetradius, isolate 601305V J) | MIC (Anaerococcus tetradius; Anaerococcus tetradius, isolate 601326V H) | MIC (Anaerococcus tetradius; Anaerococcus tetradius, isolate 601340V 25) | MIC (Anaerococcus tetradius; Anaerococcus tetradius, isolate 601342V N) | MIC (Anaerococcus tetradius; Anaerococcus tetradius, isolate 601368V 42) | MIC (Anaerococcus tetradius; Anaerococcus tetradius, isolate 601369V 12) | MIC (Anaerococcus tetradius; Anaerococcus tetradius, isolate 601429V 15) | MIC50 (Anaerococcus tetradius; [2])
